Some test systems named below: 786-0 renal; HCC-2998 colon; HT29 colon; MDA-MB-435; NCI-H23 lung; OVCAR-4 ovarian; OVCAR-5 ovarian; SK-MEL-5 melanoma; SK-OV-3 ovarian; UO-31 renal.
Holding throughout (experiment): NCI tumour cell line growth inhibition, 48 h

Here are results for 8 compounds from PubChem BioAssay (NCI).

The structures appear in SMILES notation.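 Five compound concentrations were applied to cells in 96-well plates for 48 hours; endpoints were derived by simple linear interpolation of the resulting dose-response curve. GI50 = concentration required for 50% inhibition of growth. TGI denotes the concentration required for complete inhibition of growth.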 Bounds are passed on as bounds.

`Cc1ccc(NSc2ccccc2[N+](=O)[O-])cc1`: the GI50 in the test on 786-0 renal was 1500 nM; in the test with HCC-2998 colon, 1.82 µM; in the test on HT29 colon, 0.117 µM; in the test with MDA-MB-435, 67.8 nM; in the test on NCI-H23 lung, 1.58 µM; in the test with OVCAR-4 ovarian it was 6.26 µM. Also, the GI50 with OVCAR-5 ovarian was 3.42 µM; in the test on SK-MEL-5 melanoma it was 152 nM; in the test with SK-OV-3 ovarian it was 1.06 µM; in the test with UO-31 renal, 2070 nM. Further, the TGI with 786-0 renal turned out to be 16.3 µM; with HCC-2998 colon it was 10.6 µM; in the test on HT29 colon, 12.3 µM; in the test on MDA-MB-435, 0.171 µM; with NCI-H23 lung, 22.6 µM; with OVCAR-4 ovarian it was 23.2 µM. The TGI with OVCAR-5 ovarian turned out to be 20.9 µM; in the test on SK-MEL-5 melanoma, 13.6 µM; in the test on SK-OV-3 ovarian it was 20.1 µM; with UO-31 renal, 16 µM.

Regarding `O=C(N/N=c1/ccoc2cccnc12)N1CCN(c2ncccn2)CC1`, the GI50 with 786-0 renal is 291 nM; with HCC-2998 colon, 0.905 µM; in the test with HT29 colon, under 0.01 µM; in the test on MDA-MB-435, 568 nM; with NCI-H23 lung it was 0.0308 µM; in the test on OVCAR-4 ovarian it was under 0.0129 µM. Also, the GI50 with OVCAR-5 ovarian was 1.5 µM; in the test on SK-MEL-5 melanoma it was 383 nM; with SK-OV-3 ovarian it was 0.194 µM; in the test on UO-31 renal it was 397 nM. In addition, the TGI is 2.59 µM in the test with 786-0 renal; 6.59 µM with HCC-2998 colon; 7.39 µM with HT29 colon; 8.24 µM with MDA-MB-435; 16.7 µM with NCI-H23 lung; 4.65 µM in the test with OVCAR-4 ovarian. Moreover, the TGI was found to be 38.3 µM with OVCAR-5 ovarian, 2.97 µM with SK-MEL-5 melanoma, 4.55 µM in the test with SK-OV-3 ovarian and 3.96 µM with UO-31 renal.

Regarding `O=C(NCC(=O)N1CC[C@H](NC2CCC(O)(c3ccc(-c4ncccn4)cn3)CC2)C1)c1cccc(C(F)(F)F)c1` (stereo partly specified), the GI50 with 786-0 renal was over 100000 nM; in the test with HCC-2998 colon, over 100 µM; in the test on HT29 colon it was 53 µM; with MDA-MB-435 it was over 100000 nM; in the test on NCI-H23 lung it was 52.1 µM; in the test with OVCAR-4 ovarian, 37.7 µM. Further, the GI50 with OVCAR-5 ovarian was over 100 µM; in the test with SK-MEL-5 melanoma, 18200 nM; with SK-OV-3 ovarian, over 100 µM; with UO-31 renal it was 52300 nM. In addition, the TGI in the test with 786-0 renal, in the test with HCC-2998 colon, in the test on HT29 colon, with MDA-MB-435, in the test with NCI-H23 lung and with OVCAR-4 ovarian was over 100 µM throughout. For the same compound, the TGI with OVCAR-5 ovarian is over 100 µM; with SK-MEL-5 melanoma it was 46.6 µM; in the test on SK-OV-3 ovarian, over 100 µM; with UO-31 renal it was over 100 µM.

Take `O=C(Nc1cccc([N+](=O)[O-])c1)c1ccc2ccccc2c1O`: the GI50 is 4460 nM in the test with 786-0 renal; 5.01 µM in the test on HCC-2998 colon; 22 µM with HT29 colon; 3470 nM in the test with MDA-MB-435; 3.79 µM in the test with NCI-H23 lung; 4.95 µM with OVCAR-4 ovarian. In addition, the GI50 with OVCAR-5 ovarian was 20.6 µM; with SK-MEL-5 melanoma it was 1750 nM; in the test with SK-OV-3 ovarian, 7.05 µM; in the test with UO-31 renal, 3350 nM. Further, the TGI in the test on 786-0 renal is over 100 µM; in the test with HCC-2998 colon it was over 100 µM; with HT29 colon, over 100 µM; with MDA-MB-435 it was over 100 µM; in the test with NCI-H23 lung, over 89.8 µM; in the test on OVCAR-4 ovarian, over 100 µM. For the same compound, the TGI in the test on OVCAR-5 ovarian was over 100 µM; in the test with SK-MEL-5 melanoma, 6.41 µM; with SK-OV-3 ovarian it was over 59.9 µM; in the test with UO-31 renal, over 53 µM.

Consider `N#CCC12CC=CCC1=C(O)C(=O)c1ccc(O)cc12` (stereo unspecified), for which the TGI with 786-0 renal, in the test with HCC-2998 colon, in the test on HT29 colon, with MDA-MB-435, in the test on NCI-H23 lung and in the test on OVCAR-4 ovarian was over 100 µM throughout. The TGI in the test on OVCAR-5 ovarian, in the test with SK-MEL-5 melanoma, in the test on SK-OV-3 ovarian and in the test with UO-31 renal was over 100 µM each time.

`CC(C)(C)c1cn2cccc(C(=O)N3CCN(CC(=O)Nc4ccc(Cl)cc4C(=O)c4ccccc4Cl)CC3)c2n1`: the GI50 was 24400 nM in the test on 786-0 renal; 10.3 µM in the test on HCC-2998 colon; 3.33 µM in the test with HT29 colon; 6390 nM with MDA-MB-435; 18.8 µM with NCI-H23 lung; 7.9 µM in the test on OVCAR-4 ovarian. The GI50 in the test with OVCAR-5 ovarian was 16.1 µM; in the test with SK-MEL-5 melanoma, 3620 nM; in the test on SK-OV-3 ovarian, 27.5 µM; in the test with UO-31 renal it was 22400 nM. Besides, the TGI in the test with 786-0 renal was 85.2 µM; with HCC-2998 colon, 75.1 µM; with HT29 colon, 12.1 µM; in the test with MDA-MB-435, 21.6 µM; in the test with NCI-H23 lung it was over 100 µM; in the test with OVCAR-4 ovarian, over 100 µM. Moreover, the TGI in the test with OVCAR-5 ovarian was 44.9 µM; in the test with SK-MEL-5 melanoma, 12.7 µM; in the test on SK-OV-3 ovarian, over 100 µM; in the test with UO-31 renal it was 74.7 µM.

As for `Cn1ccnc1C(=O)/C=C/c1ccc(C(=O)Nc2ccccc2O)cc1`, the GI50 with 786-0 renal is 1980 nM; in the test with HCC-2998 colon, 2.29 µM; in the test on HT29 colon, 2.4 µM; in the test with MDA-MB-435, 2220 nM; in the test on NCI-H23 lung, 2.91 µM; in the test on OVCAR-4 ovarian, 2.5 µM. Further, the GI50 in the test on OVCAR-5 ovarian was 2.39 µM; in the test with SK-MEL-5 melanoma, 3360 nM; in the test with SK-OV-3 ovarian, 4.13 µM; in the test with UO-31 renal it was 1240 nM. For the same compound, the TGI in the test on 786-0 renal is 4.64 µM; in the test with HCC-2998 colon, 4.26 µM; in the test with HT29 colon it was 7.3 µM; with MDA-MB-435, 4.85 µM; in the test on NCI-H23 lung, 9.67 µM; in the test on OVCAR-4 ovarian, 12.5 µM. In addition, the TGI was found to be 7.09 µM in the test with OVCAR-5 ovarian, 11.1 µM in the test with SK-MEL-5 melanoma, 14.5 µM in the test on SK-OV-3 ovarian and 2.5 µM in the test on UO-31 renal.

Regarding `CC(=O)Nc1ccc2c(c1)C(=O)c1cccc(F)c1-2`, the TGI in the test on 786-0 renal, in the test with HCC-2998 colon, with HT29 colon, with MDA-MB-435, in the test on NCI-H23 lung and in the test with OVCAR-4 ovarian was over 100 µM in each case. For the same compound, the TGI in the test with OVCAR-5 ovarian, with SK-MEL-5 melanoma, in the test on SK-OV-3 ovarian and in the test with UO-31 renal was over 100 µM in each case. Moreover, in the test on HCC-2998 colon, the GI50 is over 100 µM.
